From US12612661B2, “Compositions and methods for assessing the efficacy of inhibitors of neurotransmitter transporters” (DENOVO BIOPHARMA LLC, priority 2020, dated 2026)

Key:
SERT = target: T1, SERT (Homo sapiens, UniProt P31645); assay: In vitro competition binding, membranes from HEK cell lines overexpressing SERT; details: radioligand at its Kd concentration; IC50 only in FIG. 1A table
T1 construct: expressed in transfected cells; host or cells: HEK cell line overexpressing the transporter; membranes
T1 sequence (P31645 whole entry): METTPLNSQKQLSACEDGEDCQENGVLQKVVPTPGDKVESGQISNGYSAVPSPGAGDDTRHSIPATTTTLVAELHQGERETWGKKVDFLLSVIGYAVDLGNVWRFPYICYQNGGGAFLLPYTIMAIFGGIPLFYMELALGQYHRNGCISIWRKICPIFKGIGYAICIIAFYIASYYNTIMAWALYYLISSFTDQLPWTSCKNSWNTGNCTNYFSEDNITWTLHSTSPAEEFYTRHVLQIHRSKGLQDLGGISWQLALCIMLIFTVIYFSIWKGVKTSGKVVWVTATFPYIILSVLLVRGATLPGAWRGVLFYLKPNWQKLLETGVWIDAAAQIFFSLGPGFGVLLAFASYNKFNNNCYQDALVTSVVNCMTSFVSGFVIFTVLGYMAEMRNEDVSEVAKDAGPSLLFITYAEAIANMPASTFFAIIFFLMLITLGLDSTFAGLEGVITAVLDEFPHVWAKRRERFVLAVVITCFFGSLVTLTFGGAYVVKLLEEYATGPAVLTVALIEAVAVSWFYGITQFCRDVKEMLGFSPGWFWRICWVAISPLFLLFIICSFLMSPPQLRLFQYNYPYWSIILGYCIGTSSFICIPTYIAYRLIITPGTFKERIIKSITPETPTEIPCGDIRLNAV
Excerpt: (§1) FIG. 1 depicts exemplary DB104 structure, preclinical result, and clinical trial design. […] In vitro Binding Result: Competition binding experiments were utilized to determine the in vitro binding potencies (IC50 values) of BMS-820836 for SERT, DAT, and NET. Membranes prepared from human embryonic kidney (HEK) cell lines overexpressing each transporter were employed in the assays. Radioligands were used at their respective affinity constant (Kd) concentrations for each transporter to enable direct comparisons of the IC50 values between assays. Monoamine Reupdate inhibition: Cell-based assays were used to determine the ability of BMS-820836 to inhibit reuptake of 3H-labeled dopamine ([^3H]DA), norepinephrine ([^3H]NE), and serotonin ([^3H]5-HT).

DAT = target: T2, DAT (Homo sapiens, UniProt Q01959); assay: In vitro competition binding, membranes from HEK cell lines overexpressing DAT; details: radioligand at its Kd concentration; IC50 only in FIG. 1A table
T2 construct: expressed in transfected cells; host or cells: HEK cell line overexpressing the transporter; membranes
T2 sequence (Q01959 whole entry): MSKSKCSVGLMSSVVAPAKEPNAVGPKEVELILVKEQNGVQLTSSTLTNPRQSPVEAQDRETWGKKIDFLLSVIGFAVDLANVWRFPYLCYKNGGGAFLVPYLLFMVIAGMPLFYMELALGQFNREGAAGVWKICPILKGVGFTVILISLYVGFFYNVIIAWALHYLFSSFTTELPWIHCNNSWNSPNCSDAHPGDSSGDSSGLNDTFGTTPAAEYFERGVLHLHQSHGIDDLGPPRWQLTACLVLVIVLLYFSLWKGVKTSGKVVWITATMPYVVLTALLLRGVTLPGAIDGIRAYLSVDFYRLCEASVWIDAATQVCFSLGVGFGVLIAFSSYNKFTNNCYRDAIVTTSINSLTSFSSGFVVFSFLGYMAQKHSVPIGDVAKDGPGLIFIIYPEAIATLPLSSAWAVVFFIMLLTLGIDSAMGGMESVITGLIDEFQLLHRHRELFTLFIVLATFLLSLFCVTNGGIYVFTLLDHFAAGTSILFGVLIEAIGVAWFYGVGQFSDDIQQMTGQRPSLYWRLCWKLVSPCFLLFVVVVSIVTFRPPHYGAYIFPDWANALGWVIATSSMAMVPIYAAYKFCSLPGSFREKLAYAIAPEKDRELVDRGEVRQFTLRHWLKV
Excerpt: as §1

HEK293/hDAT cells = target: T3, HEK293/hDAT cells (Homo sapiens, UniProt Q01959); assay: Cell-based monoamine reuptake inhibition, [3H]DA uptake; details: IC50 only in FIG. 1A table
T3 construct: expressed in transfected cells; host or cells: HEK293/hDAT cells
T3 sequence (Q01959 whole entry): as above
Excerpt: as §1

patients with MDD [1] = details: overall population, CN162006 and CN162007; cited from earlier work
patients with MDD [2] = assay: Phase 2b efficacy studies CN162006 and CN162007, MADRS total score, analysed by rs12217173 genotype; type: in vivo, human
Experimental: The Phase 2b program for DB104 consists of two efficacy studies (CN162006 and CN162007), and both efficacy studies have a similar design and include patients with MDD. CN162006 is flexible-dose study where patients with a history of inadequate response to at least one but less than four antidepressants and one prospective treatment (duloxetine) are switched to flexibly-dosed DB104 (0.5-2 mg/d) or remain on duloxetine (Bhagwagar Z. et al. 2015). CN162007 is a fixed dose, dose-response study where patients with a history of inadequate response to at least one but less than four antidepressants and one prospective treatment (duloxetine/escitalopram) are switched to fixed doses of DB104 (0.25, 0.5, 1, 2 mg/day) or remain on duloxetine/escitalopram (FIG. 1B and 1C). […] (Bhagwagar Z. et al. 2015.)
We were provided with a large number of whole blood samples that were collected from the above phase II clinical trials (CN162-006 and CN162-007), and these samples corresponded to 233 unique patients that had received DB104 and completed the trial adequately to measure their response to treatment. Thus, germline DNA samples extracted from blood of patients enrolled in these two trials were used to identify pharmacogenetic biomarker for DB104. For the discovery phase, 188 samples were selected, and the remaining 45 samples would be left for validating any potential SNPs using PCR. The discover and validation datasets were balanced for race and dose/trial number. In discovery phase, 188 samples from DB104 treatment group were genotyped using the Illumina 4.5 million whole genome SNP arrays. Two (2) out of the 188 samples failed QC and were excluded from the genome-wide analysis but added to the validation set. From this genome wide screen from 186 samples, we have identified SNP rs12217173 which has a p-value of 6.609×10^−8, which is very close to genome-wide significance cut-off of 5×10^−8, especially given the limited sample size of this study.
To confirm the finding of rs12217173 as possible pharmacogenetic biomarker to predict DB104 efficacy, we next measured its genotype with Taqman SNP assay using the validation set which consists 47 patients, including two additional samples failed in genome-wide scan QC but passed real time PCR QC. […] Thus, patients with GG genotype were defined as the responders and patients carrying AA or AG genotype are defined as non-responders to DB104 treatment.
To examine whether rs12217173 is merely a prognostic biomarker for the disease instead of specific pharmacogenomic biomarker for DB104, DNA samples from 182 patients from the control group treated with duloxetine/escitalopram were genotyped using the Taqman SNP assays. […] Therefore, rs12217173 associated improvement in MADRS is related to DB104 treatment, and rs12217173 appears to be a pharmacogenomics biomarker for predicting DB104's anti-depression activity, and thus it is named as DGM4 (Denovo Genomic Marker 4).
CN162006 is flexible-dose study where DB104 doses ranged from 0.5-2 mg/d, and CN162007 is a fixed dose, dose-response study where patients were treated with doses of DB104 at 0.25, 0.5, 1, or 2 mg/day. Due to the limitation on samples available for the genome-wide study, the analysis described in previous section was not treating patients taking different doses of DB104 differently. In order to refine our analysis, we have further evaluated the effect of DB104 dose in these two studies. In CN162006, the mean and median average dose per day is 1.5 mg, and 94% patients received doses of 1 to 2 mg per day.

NET = target: T4, NET (Homo sapiens, UniProt P23975); assay: In vitro competition binding, membranes from HEK cell lines overexpressing NET; details: radioligand at its Kd concentration; IC50 only in FIG. 1A table
T4 construct: expressed in transfected cells; host or cells: HEK cell line overexpressing the transporter; membranes
T4 sequence (P23975 whole entry): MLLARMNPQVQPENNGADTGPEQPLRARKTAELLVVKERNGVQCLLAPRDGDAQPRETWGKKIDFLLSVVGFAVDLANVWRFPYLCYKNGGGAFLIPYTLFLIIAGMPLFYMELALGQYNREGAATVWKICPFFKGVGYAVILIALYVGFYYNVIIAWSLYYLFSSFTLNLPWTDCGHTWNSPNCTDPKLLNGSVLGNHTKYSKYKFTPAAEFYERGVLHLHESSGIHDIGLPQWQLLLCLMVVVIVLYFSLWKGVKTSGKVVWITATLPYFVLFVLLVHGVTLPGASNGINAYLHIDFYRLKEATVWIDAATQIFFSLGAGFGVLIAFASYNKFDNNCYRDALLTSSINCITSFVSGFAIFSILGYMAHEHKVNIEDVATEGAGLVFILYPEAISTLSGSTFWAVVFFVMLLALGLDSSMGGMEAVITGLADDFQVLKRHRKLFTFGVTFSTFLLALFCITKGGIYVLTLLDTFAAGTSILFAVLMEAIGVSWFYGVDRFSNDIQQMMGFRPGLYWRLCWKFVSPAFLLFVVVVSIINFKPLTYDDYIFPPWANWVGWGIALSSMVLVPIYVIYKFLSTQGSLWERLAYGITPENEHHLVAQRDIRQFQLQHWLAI
Excerpt: as §1

[3] = phase 2 clinical studies; cited from earlier work
C. elegans = details: oxidative stress; ANK3/unc-44 expression necessary; cited from earlier work
[4] = GG genotype, week 5 and 6, excluding 0.25 and 0.5 mg

Compound | saturation of SERT binding sites in competition binding (SERT) | saturation of DAT binding sites in competition binding (DAT) | inhibition of uptake of [3H]DA (HEK293/hDAT cells) | MADRS total score change from baseline at week 6 (primary endpoint), DB104 vs. continuation of duloxetine/escitalopram (patients with MDD [1]) | efficacy by dose in patients carrying GG genotype (patients with MDD [2]; CN162007, 0.25, 0.5, 1, 2 mg/day) | MADRS Remission Rate vs SOC treatment group (patients with MDD [2]; [4]) | MADRS Response Rate vs SOC treatment group (patients with MDD [2]; [4]) | MADRS total score reduction vs SOC treatment group (patients with MDD [2]; [4]) | MADRS score change, GG vs AA or AG genotype (patients with MDD [2]; discovery and validation datasets combined) | improvement on MADRS change from the baseline, GG vs AA or AG genotype and vs standard of care (patients with MDD [2]; discovery set (186 patients), GG allele of rs12217173) | MADRS, DB104 treatment group vs SOC treatment group (patients with MDD [2]; pooled 006 and 007 at 1 mg and 2 mg, all genotypes, any time point) | MADRS score reduction from the baseline (patients with MDD [2]; validation set (47 patients), DB104-treated patients carrying GG at rs12217173) [points] | MADRS score reduction from the baseline (patients with MDD [2]; validation set, DB104-treated patients carrying AA or AG genotype) | saturation of NET binding sites in competition binding (NET) | discontinuations due to adverse events [3] | tolerability [3] | lifespan (C. elegans)
CN1Cc2cc(-c3ccc(N)nn3)ccc2[C@H](c2ccc3ccccc3c2)C1 [DB104, liafensine] | completely saturated | completely saturated | potently and completely inhibited | neither study demonstrated significant improvement | 1 mg and 2 mg group exhibited similar efficacy, and both are much better than 0.25 mg and 0.5 mg group | statistical significance | statistical significance | statistical significance | much improved MADRS score change | much better improvement | no significant differences | ~16 | eight | completely saturated | no evidence of dose-dependent discontinuations due to adverse events | well tolerated | 
CN1CCN2c3ccccc3Cc3ccccc3C2C1 (centres unmarked) [mianserin] |  |  |  |  |  |  |  |  |  |  |  |  |  |  |  |  | increase lifespan
